Measurements from PubChem BioAssay (NCI).
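Exposure lasted 48 hours, with cells grown in 96-well plates and compounds tested at five concentrations. The concentration for full growth arrest is given as TGI.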

Tests used:
Assay in all cases: NCI-60 cell line screen, 48 h
OVCAR-8 ovarian = tested on: OVCAR-8 ovarian
SN12C renal = tested on: SN12C renal
SNB-19 CNS = tested on: SNB-19 CNS
OVCAR-4 ovarian = tested on: OVCAR-4 ovarian
ACHN renal = tested on: ACHN renal
DMS 273 small cell lung = tested on: DMS 273 small cell lung
RXF 393 renal = tested on: RXF 393 renal
A498 renal = tested on: A498 renal
SF-268 CNS = tested on: SF-268 CNS
SNB-75 CNS = tested on: SNB-75 CNS
LXFL 529 NSCLC = tested on: LXFL 529 NSCLC
RPMI-8226 leukemia = tested on: RPMI-8226 leukemia
TK-10 renal = tested on: TK-10 renal
MOLT-4 leukemia = tested on: MOLT-4 leukemia
CCRF-CEM leukemia = tested on: CCRF-CEM leukemia
SNB-78 CNS = tested on: SNB-78 CNS
DMS 114 small cell lung = tested on: DMS 114 small cell lung
M14 melanoma = tested on: M14 melanoma
NCI-H226 lung = tested on: NCI-H226 lung
NCI-H522 lung = tested on: NCI-H522 lung
LOX IMVI melanoma = tested on: LOX IMVI melanoma
HCT-116 colon = tested on: HCT-116 colon
SW-620 colon = tested on: SW-620 colon
MALME-3M melanoma = tested on: MALME-3M melanoma
HOP-62 NSCLC = tested on: HOP-62 NSCLC
CAKI-1 renal = tested on: CAKI-1 renal
K-562 leukemia = tested on: K-562 leukemia
HOP-92 NSCLC = tested on: HOP-92 NSCLC
NCI-H460 lung = tested on: NCI-H460 lung
U251 CNS = tested on: U251 CNS
HT29 colon = tested on: HT29 colon
RXF-631 renal = tested on: RXF-631 renal
A549 NSCLC = tested on: A549 NSCLC
OVCAR-3 ovarian = tested on: OVCAR-3 ovarian
KM12 colon = tested on: KM12 colon
SF-539 CNS = tested on: SF-539 CNS
UACC-257 melanoma = tested on: UACC-257 melanoma
SF-295 CNS = tested on: SF-295 CNS
UO-31 renal = tested on: UO-31 renal
IGROV1 ovarian = tested on: IGROV1 ovarian
EKVX NSCLC = tested on: EKVX NSCLC
COLO 205 colon = tested on: COLO 205 colon
SK-MEL-5 melanoma = tested on: SK-MEL-5 melanoma
SK-MEL-28 melanoma = tested on: SK-MEL-28 melanoma
HOP-18 NSCLC = tested on: HOP-18 NSCLC
XF 498 CNS = tested on: XF 498 CNS
M19-MEL melanoma = tested on: M19-MEL melanoma
DLD-1 colon = tested on: DLD-1 colon
UACC-62 melanoma = tested on: UACC-62 melanoma
786-0 renal = tested on: 786-0 renal
HCT-15 colon = tested on: HCT-15 colon
KM20L2 colon = tested on: KM20L2 colon
HL-60(TB) leukemia = tested on: HL-60(TB) leukemia
NCI-H23 lung = tested on: NCI-H23 lung
OVCAR-5 ovarian = tested on: OVCAR-5 ovarian
HCC-2998 colon = tested on: HCC-2998 colon
SK-OV-3 ovarian = tested on: SK-OV-3 ovarian
SK-MEL-2 melanoma = tested on: SK-MEL-2 melanoma
SR leukemia = tested on: SR leukemia

Measured: TGI

COc1cccc(/C=C(/C(=O)O)c2cc(OC)c(OC)c(OC)c2)c1
not listed: NCI-H23 lung | OVCAR-5 ovarian | HCC-2998 colon | SK-OV-3 ovarian | SK-MEL-2 melanoma | SR leukemia
> 100 µM: all other assays above

CCOC(=O)C1Cc2c(ccc(OC)c2OC)C(=O)C1N (stereo not given)
36.1 µM: EKVX NSCLC
not listed: A498 renal | SF-268 CNS
> 100 µM: all other assays above
